Legend:
[1] = tested on: EBV positive human lymphoma HG-3 cells; test: Alamar blue proliferation assay in HG-3 cells; type: cell-based; settings: 72 hours; for IC50: Homo sapiens, concentration range 0.01-10 μM, Alamar blue assay, read-out: Anti-proliferative IC50 values; for anti-proliferative effect on HG-3 cells (in words): Alamar blue, FIG. 1 and Table 1
Description: (§1) One million human EBV positive lymphoma cell lines HG3 and LCL070903 (Rosén et al., 2012) were cultured in RPMI1640 media supplemented with 10% FCS. […] Following treatment cells were harvested and washed with 1× PBS. Total RNA was extracted as described below.
(§2) Alamarblue® and PrestoBlue proliferation assays were performed to determine the growth kinetics of EBV inhibitor treated cells. Alamar blue® and PrestoBlue consists of a cell permeable substrate resazurin. In metabolically active and proliferating cells, resazurin is converted to resorufin due to an intrinsic reducing power of live cells and produces a red fluorescence. Therefore production of resorufin serves as an indicator of the viability of the cell population.
(§3) Proliferation assays were performed by seeding 5000 cells/well in a 96 well plate. […] Each concentration was tested in 4 replicates. To determine the growth kinetics, 10 μl of Alamar blue® or PrestoBlue (Invitrogen) was added to each well and incubated for 4 hours. Readout was taken using Tecan F500 (Tecan) multiplate reader or Varioskan LUX (ThermoFisher) multiplate reader.
In order to determine anti-cancer activity of compounds in oncoviral driven cells, an EBV infected human Chronic Lymphocytic Leukemia cell line HG-3 was used (Rosen et al., 2012). In brief, HG-3 cells were plated in a 96 well plate and treated with an increasing concentration of compounds.

NOTCH target gene HES1 = NOTCH target gene HES1 downregulation in RPMI 8402 cells; type: cell-based, human; design: Percentage inhibition of NOTCH target gene HES1: concentration or dose not given beside the values; settings: RPMI 8402 cells (NOTCH1 positive, EBV negative)
Description: (§4) Total RNA was extracted from cells using TRIzol® extraction kit (Invitrogen). Briefly, 1×10^6 cells were washed with ice-cold 1× PBS and lysed in 1 ml of TRIzol® solution for 5 minutes at room temperature to dissociate nucleoprotein complexes. Lysed cells were then treated with 200 μl of chloroform and shaked vigorously for 15-30 seconds and incubated at room temperature for 2-3 minutes. The samples were centrifuged at 14000 rpm using Eppendorf table top centrifuge for 10 minutes at 4° C. Following centrifugation, upper aqueous phase was transferred to new eppendorf tubes. To precipitate total RNA 500 μl of […] was added to the separated aqueous phase and incubated at room temperature for 10 minutes. A RNA pellet was obtained by centrifuging the samples at 4° C. for 10 minutes. RNA pellet obtained was washed with 1 ml ice cold 75% ethanol and spun down at 14000 rpm at 4° C. RNA pellet was dried off of excess of ethanol and resuspended in 40 IA DPEC water.
(§5) Total RNA extracted from the cell was used to synthesize cDNA by reverse transcription reaction. Reverse transcription was performed according to one of the two following protocols.
(§6) QRT-PCR was carried out using 7900 HT Fast Real-Time PCR system (Applied Biosystems) or QuantStudio 3 system (ThermoFisher). Briefly, 12.5 ng of template cDNA was used with a primer concentration of 0.5 μM each and lx SYBR Green dye in a final volume of 10 μL in a 96 well or 384 well plate format.
(§7) To determine the ability of compounds to downregulate EBV driven gene expression, HG-3 cells were treated with selected compounds and percentage inhibition of EBV target genes was determined by quantitative PCR. […] To further determine the anti-oncoviral specificity of compounds, these compounds were tested for their ability to downregulate a NOTCH target gene HES1 in a NOTCH1 positive (EBV negative) human leukemic cell line RPMI8402.

BMI1 (EBV target gene) [2] = test: EBV target gene downregulation (qPCR) in LCL070903 cells: BMI1; type: cell-based, human; settings: 48 hours; for inhibition at 10 µM: Homo sapiens, mRNA by qPCR, Table 6; for potency in downregulating EBV pathway (BMI1) compared with 6-(4-tert-butylphenoxy)pyridin-3-amine (in words): 10 μM, qRT-PCR, FIG. 3
Description: EBV positive human B LCL070903 cells were treated with 10 μM of the mentioned compounds for 48 hours. Following treatment, total RNA was extracted and mRNA expression analysed by qRT-PCR.
(§8) One million human EBV positive lymphoma cell lines HG3 and LCL070903 (Rosén et al., 2012) were cultured in RPMI1640 media supplemented with 10% FCS. For RNA expression analysis cells were treated with compounds at 10 μM concentration and for proliferation assay cells were treated at a concentration range of 0.01-100 μM. Following treatment cells were harvested and washed with 1× PBS. Total RNA was extracted as described below.
as §4, §5
(§9) In first protocol, SuperScript™ RT (Invitrogen) was used for reverse transcription reaction. RNA concentration was measured using NanoDrop®ND-1000 spectrophotometer (Witec AG) and 500 ng of total RNA was mixed with a 10 mM mix of dNTPs and 100 ng of random primers. The reaction mix was incubated at 65° C. for 5 minutes and quickly incubated on ice for 1 minute. Following incubation on ice, 5× first strand buffer and 0.1M DTT were added and mix was incubated for 2 minutes at 25° C. To start the reverse transcription reaction, 200U of SuperScrip™ II RT was added to the reaction mix and incubated at 42° C. for 50 minutes. The reaction was stopped by incubating the reaction mix at 75° C. for 15 minutes.
(§10) In second protocol, reverse transcription was performed using PrimeScript RT Master Mix (Takara). RNA concentration was measured using NanoDrop®ND-1000 spectrophotometer (Witec AG) and 1 μg of total RNA was mixed with 4 μL 5X PrimeScript RT Master Mix in a total reaction volume of 20 μL. The reaction mix was incubated at 37° C. for 15 minutes followed by heat inactivation at 85° C. for 5 seconds.
as §6
(§11) Upon infection of human cells, EBV is known to induce cancerous transformation of cells via upregulation of host as well as viral genes (e.g LMP1, EBNA2, BATF1, BMI1 and CD21). To determine the ability of compounds to downregulate EBV driven gene expression, HG-3 and LCL070903 cells were treated with selected compounds and percentage inhibition of EBV target genes was determined by quantitative PCR. As shown in Table 5 and Table 6, compounds down regulate EBV target genes such as BMI1 in HG-3 and LCL070903 cells, respectively (FIGS. 3 and 4).

BMI1 (EBV target gene) [3] = test: EBV target gene downregulation (qPCR) in HG-3 cells: BMI1; type: cell-based, human; settings: 48 hours; for inhibition at 10 µM: Homo sapiens, mRNA by qPCR, Table 5; for potency in downregulating EBV pathway (BMI1) compared with 6-(4-tert-butylphenoxy)pyridin-3-amine (in words): 10 μM, qRT-PCR, FIG. 4
Description: EBV positive human B HG-3 cells were treated with 10 μM of the mentioned compounds for 48 hours. Following treatment, total RNA was extracted and mRNA expression analysed by qRT-PCR.
as §8, §4, §5, §9, §10, §6, §11

[4] = tested on: EBV positive human B HG-3 cells; test: PrestoBlue proliferation assay in HG-3 cells; type: cell-based; settings: 72 hours; for IC50: Homo sapiens, concentration range 0.03-100 μM, PrestoBlue assay, read-out: Anti-proliferative IC50 values (μM) in HG-3 cells; for anti-proliferative effect on HG-3 cells (in words): PrestoBlue, FIG. 2 and Table 4
Description: as §1, §2, §3
In brief, HG-3 cells were plated in a 96 well plate and treated with an increasing concentration of compounds.

EBNA2 [5] = test: EBV target gene downregulation (qPCR) in LCL070903 cells: EBNA2; type: cell-based; settings: Homo sapiens, mRNA by qPCR, Table 6
Description: as §8, §4, §5, §9, §10, §6, §11

EBNA2 [6] = test: EBV target gene downregulation (qPCR) in HG-3 cells: EBNA2; type: cell-based; settings: Homo sapiens, mRNA by qPCR, Table 5
Description: as §8, §4, §5, §9, §10, §6, §7, §11

| IC50 [1] [µM] | SMILES | inhibition at 10 µM (BMI1 (EBV target gene) [2]) [%] | inhibition at 10 µM (BMI1 (EBV target gene) [3]) [%] | IC50 [4] [µM] | anti-proliferative effect on HG-3 cells (in words) [1] | potency in downregulating EBV pathway (BMI1) compared with 6-(4-tert-butylphenoxy)pyridin-3-amine (in words) (BMI1 (EBV target gene) [2]) | potency in downregulating EBV pathway (BMI1) compared with 6-(4-tert-butylphenoxy)pyridin-3-amine (in words) (BMI1 (EBV target gene) [3]) | further results |
| --- | --- | --- | --- | --- | --- | --- | --- | --- |
| > 10 | CC(C)(C)c1ccc(Oc2ccc(N)cn2)cc1 [6-(4-tert-Butylphenoxy)pyridin-3-amine, reference compound] | < 0 | < 0 | > 10 | – | – | – | Percentage inhibition of NOTCH target gene HES1 (NOTCH target gene HES1): 80%; downregulation of NOTCH target gene HES1 (in words) (NOTCH target gene HES1): effectively downregulates HES1 |
| 8 | CC(C)(C)c1ccc(Oc2ccc(NCC#N)cn2)cc1 [Example 6, 2-((6-(4-(tert-Butyl)phenoxy)pyridin-3-yl)amino)acetonitrile] | – | – | – | demonstrate anti-proliferative effect | – | – | – |
| 7.1 | CC(C)(C)c1ccc(Oc2ccc(NCc3nn[nH]n3)cn2)cc1 [Example 7, N-((2H-Tetrazol-5-yl)methyl)-6-(4-(tert-butyl)phenoxy)pyridin-3-amine] | – | – | – | demonstrate anti-proliferative effect | – | – | – |
| 7.9 | CC(C)(C)c1ccc(Oc2ccc(NCc3nnco3)cn2)cc1 [Example 8, N-((1,3,4-Oxadiazol-2-yl)methyl)-6-(4-(tert-butyl)phenoxy)pyridin-3-amine] | – | – | – | demonstrate anti-proliferative effect | – | – | – |
| 6.3 | CC(C)(C)c1ccc(Oc2ccc(NCc3nnc(N)o3)cn2)cc1 [Example 9, 5-(((6-(4-(tert-Butyl)phenoxy)pyridin-3-yl)amino)methyl)-1,3,4-oxadiazol-2-amine] | – | – | – | demonstrate anti-proliferative effect | – | – | – |
| – | CC(C)(C)c1ccc(Oc2ccc(NCc3cccnc3)cc2F)cc1 [Example 18, 4-(4-(tert-Butyl)phenoxy)-3-fluoro-N-(pyridin-3-ylmethyl)aniline] | 24 | 10 | – | – | enhanced potency | enhanced potency | – |
| – | c1ccc(-c2ccc(Oc3ccc(NCc4cccnc4)cn3)cc2)cc1 [Example 20, 6-([1,1r-Biphenyl]-4-yloxy)-N-(pyridin-3-ylmethyl)pyridin-3-amine] | 44 | 35 | 0.3 | – | enhanced potency | – | inhibition at 10 µM (EBNA2 [5]): 27%; anti-proliferative effect on HG-3 cells (in words) [4]: demonstrate anti-proliferative effect |
| – | Cc1cc(Oc2ccc(-c3ccccc3)cc2)ncc1NCc1cccnc1 [Example 22, 6-([1,1′-Biphenyl]-4-yloxy)-4-methyl-N-(pyridin-3-ylmethyl)pyridin-3-amine] | 18 | 30 | 1.5 | – | enhanced potency | enhanced potency | anti-proliferative effect on HG-3 cells (in words) [4]: demonstrate anti-proliferative effect |
| – | Fc1ccc(-c2ccc(Oc3ccc(NCc4cccnc4)cn3)cc2)cc1 [Example 24, 6-((4′-Fluoro-[1,1′-biphenyl]-4-yl)oxy)-N-(pyridin-3-ylmethyl)pyridin-3-amine] | 61 | 15 | – | – | enhanced potency | enhanced potency | inhibition at 10 µM (EBNA2 [6]): 7% |
| – | Fc1cc(NCc2cccnc2)ccc1Oc1ccc(-c2ccccn2)cc1 [Example 25, 3-Fluoro-4-(4-(pyridin-2-yl)phenoxy)-N-(pyridin-3-ylmethyl)aniline] | 46 | 19 | 6.7 | – | enhanced potency | enhanced potency | inhibition at 10 µM (EBNA2 [6]): 1%; anti-proliferative effect on HG-3 cells (in words) [4]: demonstrate anti-proliferative effect |
| – | Fc1cc(NCc2cccnc2)ccc1Oc1ccc(-c2cccnc2)cc1 [Example 26, 3-Fluoro-4-(4-(pyridin-3-yl)phenoxy)-N-(pyridin-3-ylmethyl)aniline] | 53 | 11 | – | – | enhanced potency | enhanced potency | – |
| – | COC(c1ccc(NCc2cccnc2)cc1)c1ccc(-c2ccc(F)cc2)cc1 (stereo not drawn) [Example 31, 4-((4′-Fluoro-[1,1′-biphenyl]-4-yl)(methoxy)methyl)-N-(pyridin-3-ylmethyl)aniline] | 48 | 24 | – | – | enhanced potency | enhanced potency | – |
| – | Fc1ccc(-c2ccc(Cc3ccc(NCc4cccnc4)cc3)cc2)cc1 [Example 32, 4-((4′-Fluoro-[1,1′-biphenyl]-4-yl)methyl)-N-(pyridin-3-ylmethyl)aniline] | 45 | 13 | – | – | enhanced potency | enhanced potency | – |

— patent US20220185793A1, “COMPOUNDS FOR THE TREATMENT OF ONCOVIRUS INDUCED CANCER AND METHODS OF USE THEREOF” (Cellestia Biotech AG, priority 2019, published 2022)
